These results are taken from US11459586B2, “Methods for increasing efficiency of nuclease-mediated gene editing in stem cells” (President and Fellows of Harvard College, priority 2016, dated 2022).

The test system of this assay is human iPSC. As to the kind of experiment: simultaneous multiplex mThy1 and mCD147 gene replacement in hiPSC. It counts as cell-based. An excerpt: FIGS. 5A-B. Bcl-2 overexpression enables double homozygous targeted gene replacement in human iPSC. FIG. 5A. Mouse Thy1 gene targeting scheme (left). Mouse CD147 gene targeting scheme (right): Two sgRNAs target human BSG (CD147) within intron 1 (Left) or after the polyadenylation site (Right). The mouse CD147 targeting vector plasmid contains mCD147 coding exons 2-7, flanked by hCD147 homology arms outside the sgRNA sites—coding exon 1 (which encodes the signal peptide) is retained but the sgRNA sites are disrupted. FIG. 5B. Plain human iPSC were transfected with 1 μg each of the mThy1 and mCD147 targeting vectors together with a total of 2 μg “Cas9 only sgRNA” or “Cas9 Bcl-2 sgRNA” expression plasmid. Cells were transfected with the following sgRNA combinations: Thy1 Left and CD147 Left, Thy1 Right and CD147 Right, all four Thy1 and CD147 sgRNAs, or Negative sgRNA #1. Nine days later, cells were analyzed by flow cytometry for mThy1, hThy1, mCD147, and hCD147 expression. Upper two plots show the percent of Thy1 or CD147 gene replacement as gated on all live single iPSC. Lower four plots show the percent of CD147 gene replacement as gated on the Thy1 gene targeting quadrants. Results are representative of four independent experiments.
The U6 promoter-sgRNA (for each sgRNA sequence) was cloned into the EF1α promoter-Cas9 nuclease or EF1α promoter-Cas9 nuclease-IRES-Bcl-2 expression plasmids to form the “Cas9 only sgRNA” or “Cas9 Bcl-2 sgRNA” plasmids used in Examples 6 and 7.
Previously, low gene targeting frequencies in hiPSC could be overcome by clever enrichment or selection schemes. However, for simultaneous multiplex gene targeting, a higher absolute frequency is needed. […] Plain hiPSC were transfected with both mThy1 and mCD147 targeting vectors together with the “Cas9 only sgRNA” or “Cas9 Bcl-2 sgRNA” plasmids. Combinations of both Left sgRNAs, both Right sgRNAs, all four sgRNAs, or a negative control sgRNA were used. Cultures were then analyzed by flow cytometry for hThy1, mThy1, hCD147, and mCD147 expression. […] When cell populations were gated on homozygous mThy1 gene replacement (red) and then analyzed for mCD147 gene replacement, we found an enrichment of mCD147 events, rather than an independent assortment of gene editing outcomes. Likewise, when all four sgRNAs were transfected, the mThy1^−hThy1^− double negative population (blue) contained an enriched proportion of mCD147^−hCD147^− cells. Even considering an overall transfection rate of 60-70%, these enrichments indicate that hiPSC may be poised for either HR or NHEJ at various periods. With Bcl-2, the frequency of HR-mediated double homozygous gene replacements (mThy1^+hThy1^− mCD147^+hCD147^−) increased by an order of magnitude (Left sgRNAs: from 0.02% to 0.16%; Right sgRNAs: from 0.01% to 0.37%). […]

Consider “Bcl-2: B cell lymphoma 2 protein, anti-apoptotic, overexpressed from lentivirus or Cas9 plasmid”, for which the “frequency of HR-mediated double homozygous gene replacements (mThy1+hThy1- mCD147+hCD147-)” value by setting is: (Left sgRNAs, with Bcl-2 (from 0.02% without)) 0.16%; (Right sgRNAs, with Bcl-2 (from 0.01% without)) 0.37%. Besides, the “NHEJ-mediated quadruple-negative deletions (mThy1-hThy1- mCD147-hCD147-)” value (all four sgRNAs, with Bcl-2 (from 0.7% without)) was determined as 1.1%. Further, under “multiplex mThy1 and mCD147 targeting, every sgRNA combination”, the gene editing frequencies entry is “improved gene editing frequencies”.
